Patent US20100125073A1, “BENZOFURAN AND BENZOTHIOPHENE DERIVATIVES USEFUL IN THE TREATMENT OF CANCERS OF THE CENTRAL NERVOUS SYSTEM” (priority 2006, published 2010)

What was measured:
[1] = tested on: H4 (human neuroglioma) cells; assay: Proliferation assay (CellTiter-Glo), H4; assay type: cell-based; settings: n = 1
Experimental: (§1) SK-N-DZ (human neuroblastoma; ATCC# CRL-2149) or U118 MG (human glioblastoma/astrocytoma; ATCC# HTB-15) or U87 MG (human glioma; ATCC# HTB-14) or H4 (human neuroglioma; ATCC# HTB 178) cells are cultivated under standard conditions (RPMI 1640/Glutamax 2 mM/glucose 2 g/l/SoBicarbonate 2 g/1/10% FCS; 37° C. in 5% CO2 in a humid incubator). Cells are suspended using Accutase (PAA) and seeded at 1000 cells/Well in 100 μL medium/well in a 96-well plate (Greiner Kat. Nr. 655073). The test compound is added 24 Stunden after seeding. Commercial assays (CellTiter-Glo® Luminescent Cell Viability Assay; Promega Kat. Nr. G7571) are used 72 later according to the manufacturers instructions. IC50 is calculated using GraphPad Prism.
(§2) Compounds are solved in 100% DMSO and diluted 1:20 in medium before used diluted 1:10 in the test.

[2] = tested on: U87 MG (human glioma) cells; assay: Proliferation assay (CellTiter-Glo), U87 MG; assay type: cell-based; settings: U-87 MG, n = 2
Experimental: as §1, §2

[3] = Crossing blood brain barrier in mice; assay type: in vivo, Male Ncr nude mice; settings: 200 mg/kg orally for 14 days
Experimental: Male Ncr nude mice (n=3/time point) is treated for 14 days orally with a therapeutically relevant dose of example 153 (200 mg/kg) or a vehicle control (time: Oh). Daily treatment with a high dose like this is necessary to effectively treat subcutaneously transplanted tumors in these mice. After treatment, mice are sacrified at indicated time points, blood and brain tissue is removed and analysed. The method is as described above in example 2 under “Stability in rat and human plasma”. […] Mean brain concentrations are indicated as absolute concentration and relative to plasma concentration at similar time points (from the same experiment) in the table below.

[4] = tested on: U118 MG (human glioblastoma/astrocytoma) cells; assay: Proliferation assay (CellTiter-Glo), U118 MG; assay type: cell-based; settings: U-118-MG, n = 4
Experimental: as §1, §2

[5] = tested on: SK-N-DZ (human neuroblastoma) cells; assay: Proliferation assay (CellTiter-Glo), SK-N-DZ; assay type: cell-based; settings: 72 after compound addition, n = 4
Experimental: as §1, §2

[6] = Stability in buffer at different pH-values; assay type: physicochemical
Experimental: To determine the stability of test compounds at different pH-values 0.3 mg of the dry compound is dissolved in 0.5 ml of acetonitrile and the sample is sonified for 10 seconds. Then buffer solutions are added and the samples are sonified again.
pH 2: 0.03 M citric acid/0.0082 M hydrochloric acid/0.061 M sodium chloride pH 3: 0.04 M citric acid/0.021 M sodium hydroxide/0.06 M sodium chloride pH 4: 0.056 M citric acid/0.068 M sodium hydroxide/0.044 M Sodium chloride pH 5: 0.096 M citric acid/0.2 M sodium hydroxide pH 7: 0.029 M sodium hydroxide solution/0.05 M potassium dihydrogen phosphate pH 10: 0.013 M sodium tetraborate/0.018 M sodium hydroxide
The test compound concentrations in solution is analyzed by HPLC every hour during 24 hours at 37° C.
Agilent 1100 with DAD (G1314A), binary pump (G1312A), autosampler (G1329A), column thermostat (G1316A), thermostat (G1330A), Column: Kromasil 100 C18/60×2.1 mm/3.5 μm, Column temperature: 37° C., Eluent A: Water+5 ml perchloric acid/1, Eluent B: Acetonitrile, Gradient: 0-1.0 min 98% A, 2% B; 1.0-9.0 min 2% A, 98% B; 9.0-13.0 min 2% A, 98% B; 13.0-13.5 min 98% A, 2% B; 13.5-15.0 98% A, 2% B, Flow rate: 0.75 ml/min, Detection: 210 nm

Stability in rat plasma = assay type: in vitro ADME; settings: within 1 hour
[7] = Stability in human plasma; assay type: in vitro ADME; settings: within 1 hour
[8] = Solubility in aqueous 5% dextrose; assay type: physicochemical; settings: for solubility thermodynamic at 24 h: saline or isotonic, thermodynamic from solid, 5% Dextrose
Experimental: The test compound is dissolved in an aqueous solution of 5% dextrose adjusted to the respective pH with 1n HCl. After shaking at room temperature for 24 h the probe is subjected to an ultra centrifugation process at 224000 g for 30 min. DMSO is added to the supernatant and the content of test compound is determined and quantified by HPLC employing a two point calibration curve of the test compound in DMSO.
HPLC Method: Agilent 1100 with DAD (G1315A), quat. Pump (G1311A), Autosampler CTC HTS PAL, Degaser (G1322A) and column thermostate (G1316A); Column: Zorbax Extend-C18 3.5μ; temperature: 40° C.; Eluent A: Water+5 ml Perchloric acid/1; Eluent B: Acetonitrile; flow rate: 0.7 mL/min; Gradient: 0-0.5 min 98% A, 2% B; Rampe: 0.5-4.5 min 10%, A 90% B; 4.5-6 min 10% A, 90% B; Rampe: 6.5-6.7 min 98% A, 2% B; 6.7-7.5 min 98% A, 2% B.

CS(=O)(=O)NCc1cccc(-c2ccc3c(N)c(C(=O)c4ccc(Cl)cc4Cl)oc3c2)c1 [Example 153, N-{3-[3-amino-2-(2,4-dichlorobenzoyl)-1-benzofuran-6-yl]benzyl}methanesulfonamide]
IC50 [1]: 170 nM | IC50 [2]: 320 nM | crossing of the blood brain barrier [3]: crosses the blood brain barrier | brain concentration % of Plasma concentration ([3]; 0.167 h): 9-19% | brain concentration % of Plasma concentration ([3]; 0.5 h): 17-18% | brain concentration % of Plasma concentration ([3]; 1.5 h): 12-90% | concentration at 0.167 h ([3]; male, Ncr nude, mouse, brain, po, 0.167 h): 600 ng/mL | concentration at 0.5 h ([3]; male, Ncr nude, mouse, brain, po, 0.5 h): 1400 ng/mL | concentration at 1.5 h ([3]; male, Ncr nude, mouse, brain, po, 1.5 h): 1000 ng/mL | IC50 [4]: 120 nM | IC50 [5]: 110 nM

CC(C)[C@H](N)C(=O)N(Cc1cccc(-c2ccc3c(N)c(C(=O)c4ccc(Cl)cc4Cl)oc3c2)c1)S(C)(=O)=O.Cl [Example 366, N-{3-[3-amino-2-(2,4-dichlorobenzoyl)-1-benzofuran-6-yl]benzyl}-N-(methylsulfonyl)-L-valinamide, hydrochloride]
Amount of remaining compound ([6]; buffer pH 2, after 24 h at 37° C.): 100% | Amount of remaining compound ([6]; buffer pH 3, after 24 h at 37° C.): 100% | Amount of remaining compound ([6]; buffer pH 4, after 24 h at 37° C.): 94% | Amount of remaining compound ([6]; buffer pH 5, after 24 h at 37° C.): 58% | Amount of remaining compound ([6]; buffer pH 7, after 24 h at 37° C.): 4% | Amount of remaining compound ([6]; buffer pH 10, after 24 h at 37° C.): 2% | cleaved in plasma (Stability in rat plasma): more than 90% | cleaved in plasma [7]: more than 90% | degradation during solubility determination ([8]; 5% dextrose, 24 h room temperature): no degradation has been observed | solubility thermodynamic at 24 h ([8]; aqueous 5% dextrose solution, pH 3, 24 h room temperature): 360 µg/mL | solubility thermodynamic at 24 h ([8]; aqueous 5% dextrose solution, pH 4, 24 h room temperature): 350 µg/mL

CS(=O)(=O)NCc1cccc(-c2ccc3c(N)c(C(=O)c4ccc(Cl)cc4Cl)oc3c2)c1 [N-{3-[3-amino-2-(2,4-dichlorobenzoyl)-1-benzofuran-6-yl]benzyl}methanesulfonamide]
solubility at 24 h ([8]; aqueous 5% dextrose solution, parent compound, pH not stated): < 0.1 µg/mL
